For this data set the following is noted: Liquid; for Critical pressure: Direct measurement; for Critical temperature: Visual observation in an unstirred cell.

± gives the expanded uncertainty stated by the source.

As for `CCO` [ethanol], the Critical pressure is 6135 ± 31 kPa and the Critical temperature was determined as 514.2 ± 2.4 K.

For `CO` [methanol], the Critical pressure is 8128 ± 31 kPa and the Critical temperature is reported as 512.3 ± 2.4 K.

Take `CCCCCCC` [heptane]: the Critical pressure was determined as 2761 ± 31 kPa and the Critical temperature was determined as 540 ± 2.4 K.

`CCCO` [propan-1-ol]: the Critical pressure was 5172 ± 31 kPa and the Critical temperature turned out to be 537 ± 2.4 K.

Source of the values: the NIST ThermoML archive (doi:10.1016/j.jct.2014.01.025).
